Results reported in paper PMC5838106, “Cathelicidin promotes inflammation by enabling binding of self-RNA to cell surface scavenger receptors” (Scientific Reports, 2018).
Where no end group is shown, it is not given here.

Experiments:
[1] = tested on: NHEKs; test: U1 RNA binding to the cell at 4 °C (immunocytofluorescence); type: cell-based, human; conditions: 1 hour, peptide 2.5 μM
Source text: Figure 2 Structure and cell binding of cathelicidin and dsRNA. (a) Structures of LL37, LL34, and LL34(I20P) bound to dsRNA were solved using SAXS. SAXS data is plotted as the scattering intensity I(q) vs. the momentum transfer vector q. LL34 (blue) and LL34(I20P) (green) condense dsRNA into square lattices with first peak positions of q10 = 0.167 Å^−1 and 0.170 Å^−1, respectively. Higher order Bragg reflections due to scattering of the square lattice of LL34 and LL34(I20P) are labeled for both complexes. In comparison, LL37 (magenta) condenses dsRNA into a columnar lattice with short-ranged order, with a first peak position of q1 = 0.172 Å^−1. (b) Linear fits of Bragg peak positions indicate that LL34-dsRNA (blue) and LL34(I20P)-dsRNA (green) complexes have inter-dsRNA spacings of 3.76 nm and 3.70 nm, respectively. Each reflection corresponding to the peaks in a for LL34 and LL34(I20P) are labeled. Close overlap of the two linear fits indicate that LL34-dsRNA and LL34(I20P)-dsRNA complexes have similar unit cell structures and inter-dsRNA spacings. End-on views along the dsRNA long-axis of the columnar (c) LL37-dsRNA and (d) LL34-dsRNA or LL34(I20P)-dsRNA complexes are shown. In (d), LL34-dsRNA and LL34(I20P)-dsRNA both form square columnar structures with similar unit cell architectures. […]

[2] = tested on: THP1 cells; test: U1 RNA co-association with early endosome (EEA1) in THP1; type: cell-based, human; conditions: PMA-treated THP1, 37 °C, 4 hours
Experimental: NHEKs were grown on 8-well chamber slides (Thermofisher Scientific). After indicated treatments, cells were fixed in 4% paraformaldehyde (PFA) (Thermofisher Scientific) for 10 minutes and blocked with 3% bovine serum albumin, 0.2 M Glycine (Sigma) with or without 1 mg/mL saponin (Sigma) prior to incubating with primary antibodies followed by appropriate 488- or 568-coupled secondary antibodies, or 488-streptavidin conjugate. Nuclei were counterstained with DAPI. All images were taken with an Olympus BX41 microscope (widefield), Zeiss LSM510 confocal microscope, or Nikon A1R Confocal STORM microscope as indicated.
Figure S2. a) PMA-treated THP1 cultured at 37 °C for 4 hours with U1 RNA and cathelicidin peptides. Early endosomal antigen 1 (EEA1) is stained red, U1 RNA is stained green and nuclei were visualized with DAPI (blue). Scale bar represents 10 μm. b) IL-6 mRNA in NHEKs cultured with FPR1 inhibitor Boc-MLF (1 µM) or FPR2 inhibitor WRW4 (1 µM) for 1 hour, treated with LL37 (2.5 µM) and U1 RNA (2.5 µg/mL) for a further 6 hours. (n = 3). c) IL-6 mRNA in NHEKs cultured with G-protein coupled receptor inhibitor pertussis toxin (0.5 µg/mL) for 1 hour, treated with LL37 (2.5 µM) and U1 RNA (2.5 µg/mL) for a further 6 hours. (n = 3). […]

Substance | capacity to enable U1 RNA to bind to the cell [1] | co-association of U1 RNA with the early endosome [2]
LLGDFFRKSKEKIGKEFKRIVQRIKDFLRNLVPR [LL34] | showed the capacity to enable U1 RNA to bind to the cell | induced partial co-association with the early endosome
LL37 | showed the capacity to enable U1 RNA to bind to the cell | induced partial co-association with the early endosome
